Test results as given in publication PMC12030062, “From In Vitro Cytotoxicity to In Vivo Zebrafish Assays: A Study on 3,3-Dichloro β-, γ- and δ-Lactams and Their Biological Activity Profiles” (Pharmaceuticals, 2025).

Assays:
[1] = Hemolysis assay with human erythrocytes; assay type: cell-based; conditions: human, washed human erythrocyte suspension, pH 7.4; 10 µg/mL; read-out: degree of hemolysis
Experimental: (§1) In this context, non-hemolytic compounds are essential, as they enhance the safety and efficacy of lactam-based drugs by reducing adverse effects while maintaining their antitumor activity. In accordance with EU regulations (ISO 10993-4), the assessment of the biological compatibility of new compounds that may come into contact with the blood necessitates in vitro hemocompatibility evaluations. In this study, the extent of hemolysis induced by the different compounds was assessed by incubating them with an erythrocyte suspension. The hemolytic response of compounds 1–10 was evaluated at two concentrations (10 and 80 µg/mL), the results of which are presented in Figure 3.
(§2) • In Vitro Assay Using Human Erythrocytes • - Acquisition and Extraction of the Erythrocytes Human blood samples were obtained from the Banc de Sang i Teixits de Barcelona (Spain) from the Catalan Department of Health. Blood was deposited in tubes with the anticoagulant EDTA-K3. Blood samples were centrifuged at 3000 rpm and 4 °C for 10 min (Megafuge 2.0 R. Heraeus Instruments, Hanau, Germany) to induce sedimentation. Plasma was extracted with a Pasteur pipette. Next, the residual pellet was washed with PBS at pH 7.4. This procedure was repeated three times to remove residual leukocytes and platelets and to concentrate the erythrocytes. Following the last wash, the erythrocyte suspension was diluted (1:1) in PBS at pH 7.4 to obtain a suitable erythrocyte suspension (cell density of 8 × 10^9 cell/mL). • - Hemolysis Assay The hemolysis assay determined the capability of different compounds to induce the hemolysis of the erythrocyte membrane. Stock solutions of each compound at 1 mg/mL in PBS at pH 7.4 were prepared. Different volumes (10–80 μL) were placed in polystyrene tubes, and an aliquot of 25 µL of the erythrocyte suspensions was added to each tube. The final volume was 1 mL. The tubes were incubated at room temperature under rotatory conditions. Then, the tubes were centrifuged at 10,000 rpm for 5 min. The supernatants’ absorbance at 540 nm (Shimadzu UV-160A, Shimadzu, Duisburg, Germany) was compared with that of the positive (erythrocytes hemolyzed with distilled water) and negative (erythrocyte suspension in PBS at pH 7.4) controls. The degree of hemolysis was determined using the following equation: Hemolysis (%) = 100 × (Abs − Abs0)/(Abs100 − Abs0) where Abs, Abs0, and Abs100 are the absorbance of the test samples, of the suspension treated with isotonic phosphate–buffered saline (PBS), and of the suspension of complete hemolysis treated with distilled water, respectively. • In Vitro Essay Using Cell Cultures The murine Swiss albino fibroblasts (3T3) and the squamous cell carcinoma (A431) cell lines were obtained from Celltec UB. Cells were grown in DMEM medium (4.5 g/L glucose) supplemented with 10% (v/v) FBS, 2 mM L-glutamine, 100 U/mL penicillin, and 100 µg/mL streptomycin at 37 °C with 5% CO2. Cells were routinely cultured in 75 cm^2 culture flasks and were trypsinized using trypsin–EDTA when the cells reached approximately 80% confluence. The trypan blue assay, which allows for the direct identification and enumeration of the live (unstained) and dead (blue) cells in the cell population, was used to evaluate the viability of the cells in the cell suspension obtained. • - Cell Viability Assays Cell lines of 3T3 (1 × 10^5 cells/mL) and A431 (5 × 10^4 cells/mL) were grown at defined densities in the 60 central wells of a 96-well plate. The cells were incubated for 24 h in 5% CO2 at 37 °C. Then, the spent medium was removed, and the cells were incubated for 24 h, with their corresponding compound solutions (1 mg/mL) previously diluted in a minimum amount of DMF (dimethylformamide) and then in DMEM medium supplemented with 5% FBS (100 µL) at the required concentration range (80 or 250 µg/mL). […]

human erythrocytes = experiment: Hemolysis assay with human erythrocytes; assay type: cell-based; conditions: from 10 to 80 µg/mL
Experimental: as §1, §2

## CC(C)(C)N1C(=O)C(Cl)(Cl)C1c1ccccc1 (centres unmarked) [Compound 1]
[1]
  hemolysis at 10 µg/mL: 0.01%
Human erythrocytes
  change of hemolytic response as concentration increased: remained stable
